In patent publication US9765019B2, “Small-molecule-targeted protein degradation” (Brandeis University, priority 2011, dated 2017):
Read-outs that look alike come from different tables or passages of the source.

Columns and labels:
[1] = target: T1, Escherichia coli dihydrofolate reductase (Escherichia coli, UniProt P0ABQ4); test: Degradation of pre-inhibited eDHFR in cell lysates (Western blot); type: biochemical
T1 construct: (His)6 (N); made in house; host or cells: Escherichia coli (pET28a vector)

[2] = target: eDHFR-HA-GFP (Escherichia coli, UniProt P0ABQ4)
Description: FIG. 6 depicts degradation of eDHFR-HA in cell lysates and degradation of eDHFR fusion proteins in HeLa cells. (A) Degradation of eDHFR in HeLa cells lysates; (B) quantification of panel (A); (C) Global protein stability (GPS) assay. Cells co-express red fluorescent protein (RFP) and DHFR-HA-GFP from a bicistronic construct. Red and green fluorescence was measured by flow cytometry.
Protein degradation in whole cells was also assessed. eDHFR-HA-GFP was co-expressed with Discosoma sp. red fluorescent protein (RFP) in a bicistronic construct under control of a CMV promoter, with DHFR-HA-GFP translation occurring at the internal ribosome binding site. Thus a single mRNA is responsible for the production of both RFP and DHFR-HA-GFP, so that similar ratios of both proteins should be produced in all transfected cells. Changes in the relative intensities of red and green fluorescence are measured by flow cytometry, providing a facile and quantitative measure of the degradation of DHFR-HA-GFP in living cells and real time.
Cells were grown to 90% confluence in Dulbecco's Modified Minimal Essential Medium supplemented with 10% fetal bovine serum, 1×L-glutamine with no antibiotic in a 6 well plate. At this point the cells were serum starved, and then transfected using […] plasmid (expression driven by the cytomegalovirus promoter; gene coding for enhanced green fluorescent protein fused to the C-terminus of E. coli dihydrofolate reductase): 2 μL Transfectin™ (Biorad) per well. 48 hours after transfection, media was once again aspirated, and fresh serum free media was added. Cycloheximide (final concentration 100 μg/mL) was then added to the cells and after 5 minutes, 30 μM inhibitor was added. At each time point (45 minutes), media was aspirated, cells were trypsinized, centrifuged and washed three times with phosphate buffered saline. Cell pellets were flash frozen in dry ice, and then stored indefinitely at −80° C. The cells were thawed on ice, and then resuspended in lysis buffer (150 mM sucrose, 200 mM sodium phosphate, 43 mM MgCl2, pH 7.8, 0.1% triton X-100). Cells were lysed by two freeze/thaw cycles (−80° C. for 5 minutes, then 4° C. for 10 minutes). Lysate concentrations were normalized by dilution with lysis buffer such that they gave the same A595 when diluted into Bradford assay dye (Biorad).

[3] = target: T2, eDHFR-HA (Escherichia coli, UniProt P0ABQ4); test: Degradation by purified 20S proteasome / immunoproteasome; type: biochemical
T2 construct: (His)6 (N); made in house; host or cells: Escherichia coli (pET28a vector)
Description: The protein was pre-inhibited with 1 mM inhibitor by incubation at 30° C. for 20 minutes. This mixture was added to the assay mixture (in 50 mM Hepes, pH 8.0, 250 mM NaCl, 1 mM DTT) such that the final concentration of protein was 90 nM. The concentration of proteasome was 6 nM. The temperature of assay was 37° C. Total assay volume was 55 μL. 15 μL aliquots were extracted at various time points and immediately placed into 6 μL of 5× loading buffer and boiled for 5 minutes. These were stored at −80° C. after flash freezing on dry ice and thawed by boiling for 2 minutes. The data was analyzed by Western blot as described in Example 2.

[4] = tested on: HeLa cells; test: Cytotoxicity and apoptosis (trypan blue staining, PARP cleavage); type: cell-based; details: concentrations up to 135 μM
[5] = target: eDHFR (Escherichia coli, UniProt P0ABQ4); type: binding; details: data not shown
[6] = tested on: eDHFR-KRas D12 fusion protein; type: cell-based; details: NIH3T3 cells, 16 μM
Description: FIG. 3 depicts the degradation of eDHFR-KRas D12 fusion protein. MSCV retrovirus was used to insert eDHFR-KRas D12 fusion gene into NIH3T3 cells. These cells were plated in a 48-well plate and treated with 16 μM of either trimethoprim or trimethoprim-Boc3Arg, and then harvested at the times indicated. eDHFR-Ras contained a FLAG tag at the amino terminus and was measured through western blot with anti-FLAG antibody. Tubulin was used as a loading control.

For `COc1cc(Cc2cnc(N)nc2N)cc(OC)c1OCC(=O)NCCCCCCNC(=O)C(CCCNC(=NC(=O)OC(C)(C)C)NC(=O)OC(C)(C)C)NC(=O)OC(C)(C)C` (stereo not drawn) [TMP-Boc3Arg, N-(6-(2-(4-((2,4-diaminopyrimidin-5-yl)methyl)-2,6-dimethoxyphenoxy)acetamido)hexyl)-5-(2,3-di-t-butoxycarbonylguanidino)-2-(t-butoxycarbonylamino)pentanamide], the “Degradation of target protein (eDHFR fused to GFP)” value ([1]; FIG. 6, noncovalent ligand) was “induced the degradation”, the “Degradation of eDHFR in cell lysate assays” value ([1]; cell lysate) was “promotes the degradation” and the “decrease of eDHFR-HA-GFP” value ([2]; 80 μM, 5 hours, GPS assay, anti-HA and anti-GFP blotting) was 40%. The “Change in GFP:RFP ratio as function of time” value ([2]; GPS assay, transfected HeLa cells, flow cytometry) was “time-dependent decrease”, the Cell permeability ([2]; inferred from whole-cell degradation) was “cell permeable” and the “Degradation of eDHFR-HA-GFP in whole cells” value ([2]; whole cell assays) was “promotes the degradation”. The “Degradation using purified immune proteasome” value ([3]; 20S immunoproteasome) was “promotes the degradation”, the “Degradation using purified 20S proteasome” value ([3]; purified 20S proteasome, no ATP added) was “promotes the degradation” and the “Cytotoxicity / induction of apoptosis” value [4] was “did not display cytotoxicity or induce apoptosis”. For the same compound, the “increase of eDHFR melting point / stability (relative to TMP)” value [5] was “smaller increase”, the “Degradation of K-Ras-eDHFR fusion protein” value [6] was “can induce the degradation” and the “Degradation of K-Ras-eDHFR fusion protein” value ([6]; listed as trimethoprim-tag) was “is degraded”.
